# Source: US5455249A, “Phosphorylcarbamates of rapamycin and oxime derivatives thereof” (priority 1994, dated 1995)
# Several values for one entry are separate records, joined by “and”; a condition that tells them apart may be missing. Equal entries are not always repeated.
# Legend:
# [1] = test system: pinch skin graft; assay: Pinch skin graft survival time; type: in vivo, male BALB/c donors, male C3H(H-2K) recipients; conditions: 4 mg/kg, intraperitoneally or orally; untreated controls rejected within 6-7 days
# Method: (§1) Immunosuppressive activity for representative compounds of this invention was evaluated in an in vitro standard pharmacological test procedure to measure lymphocyte proliferation (LAF) and in an in vivo standard pharmacological test procedure which evaluated the survival time of a pinch skin graft.
# Representative compounds of this invention were also evaluated in an in vivo test procedure designed to determine the survival time of pinch skin graft from male BALB/c donors transplanted to male C3 H(H-2K) recipients. The method is adapted from Billingham R. E. and Medawar P. B., J. Exp. Biol. 28:385-402, (1951 ). Briefly, a pinch skin graft from the donor was grafted on the dorsum of the recipient as a allograft, and an isograft was used as control in the same region. The recipients were treated with either varying concentrations of test compounds intraperitoneally or orally. Rapamycin was used as a test control. Untreated recipients serve as rejection control. The graft was monitored daily and observations were recorded until the graft became dry and formed a blackened scab. This was considered as the rejection day. The mean graft survival time (number of days±S.D.) of the drug treatment group was compared with the control group. […] Results are expressed as the mean survival time in days. Untreated (control) pinch skin grafts are usually rejected within 6-7 days. The results shown in Table 1 are based on a dose of 4 mg/kg of test compound. A survival time of 12.0 ±1.7 days was obtained for rapamycin at 4 mg/kg.
# [2] = test system: lymphocyte (thymocyte / T-cell) proliferation; assay: Comitogen-induced thymocyte proliferation procedure (LAF); type: cell-based, normal BALB/c mice; conditions: for inhibition at 0.1 µM / IC50: Mus musculus; for inhibition at 0.1 µM: T-cell, read-out: % Inhib. (percent inhibition of T-cell proliferation at 0.1 μM); for IC50: Thymocyte, thymus cells of BALB/c mice cultured 72 hours with PHA and IL-1, tritiated thymidine pulse during last six hours; for LAF (ratio) compared with rapamycin: >1 means test compound inhibits thymocyte proliferation more than rapamycin
# Method: as §1
# The comitogen-induced thymocyte proliferation procedure (LAF) was used as an in vitro measure of the immunosuppressive effects of representative compounds. Briefly, cells from the thymus of normal BALB/c mice are cultured for 72 hours with PHA and IL-1 and pulsed with tritiated thymidine during the last six hours. Cells are cultured with and without various concentrations of rapamycin, cyclosporin A, or test compound. Cells are harvested and incorporated radioactivity is determined. Inhibition of lymphoproliferation is assessed as percent change in counts per minute from non-drug treated controls. For each compound evaluated, rapamycin was also evaluated for the purpose of comparison. An IC50 was obtained for each test compound as well as for rapamycin. […] The results obtained are provided as an IC50 and as the percent inhibition of T-cell proliferation at 0.1 μM. The results obtained for the representative compounds of this invention were also expressed as a ratio compared with rapamycin. A positive ratio indicates immunosuppressive activity. […] Calculation of the ratio is shown below. [formula]
# [3] = test system: formation of IgE-like antibodies; conditions: in vivo; cited from earlier work
# [4] = test system: experimental allergic encephalomyelitis model, a model for multiple sclerosis; conditions: in vivo; cited from earlier work
# [5] = alone or in combination with picibanil; cited from earlier work
# [6] = test system: Candida albicans; conditions: in vitro and in vivo; cited from earlier work
# [7] = test system: adjuvant arthritis model, a model for rheumatoid arthritis; conditions: in vivo; cited from earlier work
Compound,Skin Graft mean survival time (days ± SD) [1],inhibition at 0.1 µM [2] [%],IC50 [2] [nM],LAF (ratio) compared with rapamycin [2],inhibition of the formation of IgE-like antibodies [3],effect in the experimental allergic encephalomyelitis model [4],antitumor activity [5],antifungal activity [6],effect in the adjuvant arthritis model [7]
"CCOP(=O)(NC(=O)O[C@@H]1/C(C)=C/[C@@H](C)C(=O)C[C@@H]([C@H](C)C[C@@H]2CC[C@@H](OC(=O)NP(=O)(OCC)OCC)[C@H](OC)C2)OC(=O)[C@@H]2CCCCN2C(=O)C(=O)[C@]2(O)O[C@@H](CC[C@H]2C)C[C@H](OC)/C(C)=C/C=C/C=C/[C@@H](C)C[C@@H](C)C(=O)[C@@H]1OC)OCC [Example 1, Rapamycin 31,42-diester with (diethoxyphosphoryl)carbamic acid]",7.2 ± 0.4 days,72,90.9,0.04,–,–,–,–,–
"CCOP(=O)(NC(=O)O[C@@H]1CC[C@@H](C[C@@H](C)[C@@H]2CC(=O)[C@H](C)/C=C(\C)[C@@H](O)[C@@H](OC)C(=O)[C@H](C)C[C@H](C)/C=C/C=C/C=C(\C)[C@@H](OC)C[C@@H]3CC[C@@H](C)[C@@](O)(O3)C(=O)C(=O)N3CCCC[C@H]3C(=O)O2)C[C@H]1OC)OCC [Example 2, Rapamycin 42-ester with (diethoxyphosphoryl)carbamic acid]",10.2 ± 0.4 days and 10.0 ± 0.6 days,95,10,0.44,–,–,–,–,–
"CCOP(=O)(NC(=O)O[C@@H]1CC[C@@H](C[C@@H](C)[C@@H]2C/C(=N\OC)[C@H](C)/C=C(\C)[C@@H](O)[C@@H](OC)C(=O)[C@H](C)C[C@H](C)/C=C/C=C/C=C(\C)[C@@H](OC)C[C@@H]3CC[C@@H](C)[C@@](O)(O3)C(=O)C(=O)N3CCCC[C@H]3C(=O)O2)C[C@H]1OC)OCC [Example 3, Rapamycin 42-ester with (diethoxyphosphoryl)carbamic acid (E)-27-O-(methyl)oxime]",–,51,99,0.05,–,–,–,–,–
"CCOP(=O)(NC(=O)O[C@@H]1CC[C@@H](C[C@@H](C)[C@@H]2C/C(=N/OC)[C@H](C)/C=C(\C)[C@@H](O)[C@@H](OC)C(=O)[C@H](C)C[C@H](C)/C=C/C=C/C=C(\C)[C@@H](OC)C[C@@H]3CC[C@@H](C)[C@@](O)(O3)C(=O)C(=O)N3CCCC[C@H]3C(=O)O2)C[C@H]1OC)OCC [Example 4, Rapamycin 42-ester with (diethoxyphosphoryl)carbamic acid (Z)-27-O-(methyl)oxime]",–,82,41.9,0.01,–,–,–,–,–
CO[C@H]1C[C@@H]2CC[C@@H](C)[C@@](O)(O2)C(=O)C(=O)N2CCCC[C@H]2C(=O)O[C@H]([C@H](C)C[C@@H]2CC[C@@H](O)[C@H](OC)C2)CC(=O)[C@H](C)/C=C(\C)[C@@H](O)[C@@H](OC)C(=O)[C@H](C)C[C@H](C)/C=C/C=C/C=C/1C [rapamycin],12.0 ± 1.7 days,–,0.4 to 5.1,–,effectively inhibited the formation of IgE-like antibodies,effective,antitumor activity,"antifungal activity, particularly against Candida albicans, both in vitro and in vivo",effective
